Results as given in US8669232B2, “Flavonol compounds, a bioactive extract/fraction from Ulmus wallichiana and its compounds for prevention for treatment of osteo-health related disorders” (Council of Scientific & Industrial Research, priority 2008, dated 2014).

What was measured:
[1] = tested on: ovariectomized Sprague Dawley rats; assay: BMD by DEXA in ovariectomized (Ovx) rats, bone loss model; type: in vivo; settings: 90 days, compared with Ovx + vehicle; for BMD tibia head: 5 mg/kg body weight oral daily
Experimental: Bone mineral density of femur (global, head, neck), tibia (global, head, tibio-fibular separation point) and lumber vertebra (LV1, LV2, LV3, LV4) was determined by DEXA.
(§1) K058 at 1 to 10 mg/kg body weight were given daily by oral route to Sprague Dawley (180-200 g) rats after bilateral ovariectomy (Ovx). This is the most widely used animal model for osteopenia (bone loss) mimicking human condition of post-menopausal bone loss. The extract was given in gum acacia (vehicle). Sham operated rats and Ovx rats were used as controls and given only gum acacia. Each group consisted of 10 rats and the groups were as follows: sham intact, Ovx, Ovx+1 mg/kg K058 and Ovx+5 mg/kg K058. Treatment started 24 h after the surgery and continued for 90 days. After 90 days, the rats were first acclimatized and then kept in metabolic cages with no food but only water for 24 h to collect urine samples. After 24 h, rats were returned to the cages with food and water ad libitum with oral administration of the extract as before foe an additional 24 hour. Rats were then euthanized and autopsied to collect blood, bones (tibia, femur, L1-L4 vertebrae) and uterus.
as §1, with “K012” for “K058”, “doses of 1- and 5” for “1 to 10”, “(Ovx).” for “(Ovx). This is the most widely used animal model for osteopenia (bone loss) mimicking human condition of post-menopausal bone loss.”, “K012.” for “K058.”, “for” for “foe”

[2] = tested on: BMCs (Bone Marrow Cells) from growing female rats; assay: Ex-vivo bone marrow cultures from treated immature rats (ALP, mineralization); type: in vivo, Sprague Dawley rats; settings: BMCs from growing rats treated with 5.0 mg/kg body weight for 30 days; vs controls
Description: Right femur of control and C002 treated rats were collected aseptically in PBS during autopsy from the rats. Soft tissue was removed, and the ends of the femur was clipped off using sterile scissors, a hole was created in the knee joint end of each bone with a needle, and the marrow was flushed out from the shaft with control medium (CM) which consisted of α-MEM supplemented with 10% fetal calf serum, 100 U/ml penicillin, 100 U/ml streptomycin (Sigma, Chemical Co., St. Louis, Mo., USA). The cells were suspended in this medium, and the suspensions were spun down at 800 rpm for 5 min. Cells were resuspended in fresh CM and counted using a haemocytometer. […] ALP activity was determined as described by Akiyama et al. with modifications. Briefly, cells were washed once with PBS, then, ALP activity was measured by adding ALP buffer (1 M diethanolamine, 0.5 mM MgCl2, 1 mg/ml PNPP, pH 9.0), incubating in 37° C., and absorbance (405 nm) was read using a microplate spectrophotometer. Statistical significance was determined by paired two-tailed Student's t-tests. […]
Right femur of control and K058 treated rats were collected aseptically in PBS during autopsy from the rats. […] Cells were resuspended in fresh CM and counted using a haemocytometer. […] ALP activity was determined as described by Akiyama et al. with modifications. […] Statistical significance was determined by paired two-tailed Student's t-tests.

[3] = 5.0 mg/kg body weight oral daily

O=c1c(O)c(-c2ccc(O)c(O)c2)oc2cc(O)c(C3O[C@H](CO)[C@@H](O)[C@H](O)[C@H]3O)c(O)c12 (some centres unmarked) [K012, 6-Glucopyranosyl-3,3′,4′,5,7-pentahydroxyflavone]
BMD tibio-fibular separation point (TFSP) ([1]; 1.0 mg/kg body weight oral daily): increase | BMD tibia head [1]: significantly higher | BMD lumber vertebra global [1, 3]: higher | BMD second lumber vertebra [1, 3]: higher | BMD femur neck ([1]; 5.0 mg/kg oral daily): significantly higher | BMD tibia global ([1]; 5.0 mg/kg oral daily): significantly higher | BMD tibio-fibular separation point (TFSP) ([1]; 5.0 mg/kg oral daily): significantly higher

O=C1c2c(cc(O)c([C@@H]3OC(CO)[C@@H](O)[C@H](O)C3O)c2O)O[C@@H](c2ccc(O)c(O)c2)[C@@H]1O (stereo partly drawn) [K058, (2S,3S)-(+)-3′,4′,5,7-tetrahydroxydihydroflavonol-6-C-β-D-glucopyranoside]
ALP activity of BMCs (osteoblast differentiation) [2]: significantly more | mineralization of BMCs (alizarin red-S) [2]: significantly more | BMD tibia head [1]: increased | BMD L4 vertebra ([1]; 1.0&5.0 mg/kg body weight oral daily): higher | BMD femur global ([1]; 1.0-5.0 mg/kg oral daily): significantly higher | BMD femur neck ([1]; 1.0-5.0 mg/kg oral daily): significantly higher | BMD femur shaft ([1]; 1.0-5.0 mg/kg oral daily): significantly higher
